In brackets after ≈: the same amount, converted by molar mass. Where two headings read alike, the source gives them in different places.
Columns and labels:
[1] = test system: E. coli ATCC 25922; assay: murine septicemia model of infection; assay type: in vivo; details: mice, single SC or IV dose 1 hour after IP challenge, mortality for 7 days; ED50 values are mg/kg
Procedure: (§1) Two models were run on each compound, using E. coli and P. aeruginosa QC bacterial strains. Both studies employed the same design. […] At 1 hour after bacterial challenge, the mice received a single SC or IV dose of vehicle or test substance to assess in vivo anti-infective activity. Mortality was recorded once daily for 7 days after bacterial inoculation.

[2] = test system: P. aeruginosa ATCC 27853; assay: murine septicemia model of infection; assay type: in vivo; details: mice, single SC or IV dose 1 hour after IP challenge, mortality for 7 days; ED50 values are mg/kg
Procedure: as §1

[3] = test system: A. calcoaceticus AACA005, AAC(6′)-I; assay: MIC assay, aminoglycoside resistant strain; assay type: cell-based; design: unit not given beside the values; details: Table 3; A. calcoaceticus AAC(6′)-I
Procedure: (§2) Minimum inhibitory concentrations (MIC) were determined by reference Clinical and Laboratory Standards Institute (CLSI) broth microdilution methods per M7-A7 [2006]. Quality control ranges utilizing E. coli ATCC 25922, P. aeruginosa ATCC 27853 and S. aureus ATCC 29213, and interpretive criteria for comparator agents were as published in CLSI M100-S17 [2007]. Briefly, serial two-fold dilutions of the test compounds were prepared at 2× concentration in Mueller Hinton Broth. The compound dilutions were mixed in 96-well assay plates in a 1:1 ratio with bacterial inoculum. The inoculum was prepared by suspension of a colony from an agar plate that was prepared the previous day. Bacteria were suspended in sterile saline and added to each assay plate to obtain a final concentration of 5×10^5 CFU/mL. The plates were incubated at 35° C. for 20 hours in ambient air.
(§3) These MIC assays were conducted following the same protocol as set forth in Example 110. As shown, substituted sisomicin derivatives with groups other than methyl at the 6′-position have improved activity against strains expressing the AAC6′-modifying enzymes.

[4] = test system: E. coli AECO040, AAC(6′)-I; assay: MIC assay, aminoglycoside resistant strain; assay type: cell-based; design: unit not given beside the values; details: Table 3; E. coli AAC(6′)-I
Procedure: as §2, §3

[5] = test system: E. coli ATCC 25922 (AECO001); assay: MIC assay, CLSI broth microdilution; assay type: cell-based; design: MIC AECO001: unit not given here; details: Table 3; E. coli ATCC25922
Procedure, shortened: (§4)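 Test compounds were diluted two-fold at 2× strength in Mueller Hinton Broth, then combined 1:1 with saline-suspended bacteria from an overnight agar colony to reach 5×10^5 CFU/mL. Incubation followed at 35° C. for 20 hours in ambient air, per CLSI reference methods.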

[6] = test system: P. aeruginosa ATCC 27853 (APAE001); assay: MIC assay, CLSI broth microdilution; assay type: cell-based; details: Pseudomonas aeruginosa; Table 1; APAE001 is ATCC27853; read-out: MIC APAE001
Procedure, shortened: as §4

[7] = test system: K. pneumoniae producing KPC (n = 25); assay: MIC by microdilution, clinical isolates; assay type: cell-based; details: K. pneumoniae producing KPC (n = 25)
Procedure: (§5) The in vitro activity of representative antibacterial aminoglycoside compounds against a collection of 102 K. pneumoniae clinical isolates collected from January 2006 to October 2007 at the University of Pittsburgh Medical Center, and three Cleveland institutions including University Hospitals Case Medical Center, the Cleveland Clinic, and the Louis Stokes Department of Veterans Affairs Medical Center was analyzed. The 102 K. pneumoniae isolates were selected based on a multidrug-resistant (MDR) phenotype (i.e., resistance to >3 antibiotic classes). Twenty-five isolates were KPC carbapenemase producing (KPC-Kp), and were part of a previous study where the β-lactamase background and clonality were characterized (see Endimiani, A., A. M. Hujer, F. Perez, C. R. Bethel, K. M. Hujer, J. Kroeger, M. Oethinger, D. L. Paterson, M. D. Adams, M. R. Jacobs, D. J. Diekema, G. S. Hall, S. G. Jenkins, L. B. Rice, F. C. Tenover, and R. A. Bonomo. 2009. Characterization of blaKPC-containing Klebsiella pneumoniae isolates detected in different institutions in the Eastern USA. J Antimicrob Chemother 63:427-37).
(§6) Minimum inhibitory concentrations (MICs) were performed by microdilution method using cation-adjusted Mueller-Hinton broth, according to the Clinical and Laboratory Standards Institute (CLSI) criteria (see CLSI. 2006. Methods for dilution antimicrobial susceptibility tests for bacteria that grow aerobically; approved standard-Seventh edition. Clinical and Laboratory Standard Institute, Wayne, Pa. CLSI document M7-A7). These MIC assays were conducted following the same protocol as set forth in Example 110. […] The following ATCC control strains were used: Escherichia coli ATCC 25922, Pseudomonas aeruginosa ATCC 27853, and K. pneumoniae ATCC 700603.

[8] = test system: multidrug-resistant (MDR) K. pneumoniae isolates (n = 102); assay: MIC by microdilution, clinical isolates; assay type: cell-based; details: Total MDR K. pneumoniae isolates (n = 102)
Procedure: as §5, §6

[9] = CLSI criteria, tigecycline US FDA criteria
[10] = Klebsiella pneumoniae, read-out: MIC50
[11] = Klebsiella pneumoniae, read-out: MIC90

CN[C@@H]1[C@@H](O)[C@@H](O[C@@H]2[C@@H](O)[C@H](O[C@H]3OC(CN)=CC[C@H]3NC(=N)N)[C@@H](N)C[C@H]2NC(=O)[C@@H](O)CCN)OC[C@]1(C)O [Example 103, 2′-Guanidinium-1-(4-amino-2(S)-hydroxy-butyryl)-sisomicin]
ED50/MIC E. Coli [1]: 2 | ED50/MIC P. aeruginosa [2]: 6

CN[C@@H]1[C@@H](O)[C@@H](O[C@@H]2[C@@H](O)[C@H](O[C@H]3OC(CNCCO)=CC[C@H]3N)[C@@H](N)C[C@H]2NC(=O)[C@@H](O)CN)OC[C@]1(C)O [Example 16, 6′-(2-Hydroxy-ethyl)-1-(3-amino-2(S)-hydroxy-propionyl)-sisomicin]
ED50/MIC E. Coli [1]: 1 | ED50/MIC P. aeruginosa [2]: 3

CN[C@@H]1C(O)[C@@H](O[C@@H]2[C@@H](O)[C@H](OC3OC(CN)=CC[C@H]3N)[C@@H](N)C[C@H]2NC(=O)C2(O)CNC2)OC[C@]1(C)O (some centres unmarked) [Mono-substituted Compound 7]
MIC AACA005 [3]: 32 | MIC AECO040 [4]: 4 | MIC AECO001 [5]: 1

CN[C@@H]1[C@@H](O)[C@@H](O[C@@H]2[C@@H](O)[C@H](O[C@H]3OC(CNCCCN)=CC[C@H]3N)[C@@H](N)C[C@H]2NC(=O)[C@@H](O)CN)OC[C@]1(C)O [Example 17, 6′-(3-Amino-propyl)-1-(3-amino-2(S)-hydroxy-propionyl)-sisomicin]
ED50/MIC E. Coli [1]: 1 | ED50/MIC P. aeruginosa [2]: 5 | MIC [6]: 1 to 16 µg/mL (≈ 1.69 to 27 µM)

CC(C)(O/N=C(\C(=O)N[C@@H]1C(=O)N2C(C(=O)[O-])=C(C[n+]3ccccc3)CS[C@H]12)c1csc(N)n1)C(=O)O [Ceftazidime, ceftazidime]
S (%), susceptible isolates [7, 9]: 0.0% | MIC50 [7, 10]: > 32 µg/mL | MIC90 [7, 11]: > 32 µg/mL | MIC50 [8, 10]: > 32 µg/mL | MIC90 [8, 11]: > 32 µg/mL | MIC90 [8]: >32 µg/mL | S (%), susceptible isolates [8, 9]: 9.8%

CN[C@@H]1C(O)[C@@H](O[C@@H]2[C@@H](O)[C@H](OC3OC(CN)=CC[C@H]3N)[C@@H](N)C[C@H]2NC(=O)[C@@H](O)CCN)OC[C@]1(C)O (some centres unmarked) [Mono-substituted Compound 6]
MIC AACA005 [3]: 16 | MIC AECO040 [4]: 4 | MIC AECO001 [5]: 0.5

CN[C@@H]1C(O)[C@@H](O[C@@H]2[C@@H](O)[C@H](OC3OC(CN)=CC[C@H]3N)[C@@H](N)C[C@H]2NC(=O)[C@@H](O)CN)OC[C@]1(C)O (some centres unmarked) [Mono-substituted Compound 5]
MIC AACA005 [3]: 32 | MIC AECO040 [4]: 8 | MIC AECO001 [5]: 0.5

CN[C@@H]1[C@@H](O)[C@@H](O[C@@H]2C(O)[C@H](O[C@H]3OC(CNCC4CCNCC4)=CC[C@H]3N)[C@@H](N)C[C@H]2N)OC[C@]1(C)O (some centres unmarked) [Mono-substituted Compound 3]
MIC AACA005 [3]: 0.5 | MIC AECO040 [4]: 0.25 | MIC AECO001 [5]: 0.5
